Results published in patent US20250352676A1, “N-Cyclopropyl-1-(4-(4-(Fluoro-18f)Phenyl)Pyrimidin-5-Yl)-N-Methylpiperidine- 4-Carboxamide and Uses in PET Imaging” (Emory University, priority 2022, published 2025).
Where two headings read alike, the source gives them in different places.

Columns and labels:
CYP46A1 [1] = target: T1, CYP46A1 (Homo sapiens, UniProt Q9Y6A2); assay: Competitive displacement of 18F-CHL-2205; format: binding
CYP46A1 [2] = target: T2, CYP46A1 (Mus musculus, UniProt Q9WVK8); assay: Saturation binding studies with brain homogenates; design: species or system rodent
T2 sequence (Q9WVK8 whole entry): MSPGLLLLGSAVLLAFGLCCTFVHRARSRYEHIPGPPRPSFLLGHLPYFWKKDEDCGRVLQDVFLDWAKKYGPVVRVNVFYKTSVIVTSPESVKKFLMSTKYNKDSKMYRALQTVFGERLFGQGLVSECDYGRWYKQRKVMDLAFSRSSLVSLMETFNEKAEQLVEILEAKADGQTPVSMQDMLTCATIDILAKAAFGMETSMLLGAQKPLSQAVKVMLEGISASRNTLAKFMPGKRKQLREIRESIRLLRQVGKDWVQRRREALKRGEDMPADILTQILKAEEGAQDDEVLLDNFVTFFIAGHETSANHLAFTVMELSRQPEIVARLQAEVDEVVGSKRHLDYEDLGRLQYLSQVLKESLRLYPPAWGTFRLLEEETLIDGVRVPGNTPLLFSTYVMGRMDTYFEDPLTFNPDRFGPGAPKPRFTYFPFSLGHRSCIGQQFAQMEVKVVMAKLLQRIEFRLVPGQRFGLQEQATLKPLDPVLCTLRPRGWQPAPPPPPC
Experimental: Experiments were performed to determine whether a targeted PET imaging probe would allow the quantification of cholesterol metabolism in the living brain, ultimately paving the way for mechanistic studies on brain cholesterol metabolism in humans. […] The tracer distribution matched closely with the Allen Brain Atlas distribution of CYP46A1 expression data in the mouse brain. Quantification of CYP46A1 by Western blot analysis in the same brain regions confirmed that tracer binding patterns were in concert with CYP46A1 expression across all tested brain regions. Saturation binding studies were performed to determine the dissociation constant (KD) of the probe as well as to assess the amount of available CYP46A1 protein (Bmax) in selected brain regions.

[3] = system: major CNS targets, including common G protein-coupled receptors, ion channels, enzymes, and transporters; assay: Pharmacological screening on major CNS targets; conditions: testing concentration of 10 μM
[4] = Incubation with mouse liver microsomes (radiodefluorination); format: in vitro ADME
[5] = Incubation with rat liver microsomes (radiodefluorination); format: in vitro ADME
[6] = format: in vitro ADME, VHP
Experimental: (§1) PET imaging studies were conducted by intravenous injection of 18F-CHL-2205 to rats. […] Greater than 99% of the brain signal was attributed to the intact parent tracer. The brain signal was substantially devoid of interference by radiometabolites. By ex vivo studies, greater than 90% of the signal in the brain was specific at 15, 30, and 45 min after injection.

[7] = Incubation with human liver microsomes (radiodefluorination); format: in vitro ADME
CYP46A1 [8] = target: T3, CYP46A1 (Rattus norvegicus, UniProt A0ACM8QFK4); assay: PET imaging and ex vivo brain studies after intravenous injection to rats; format: in vivo
T3 construct: from tissue; host or cells: brain of living rats
T3 sequence (A0ACM8QFK4 29-500): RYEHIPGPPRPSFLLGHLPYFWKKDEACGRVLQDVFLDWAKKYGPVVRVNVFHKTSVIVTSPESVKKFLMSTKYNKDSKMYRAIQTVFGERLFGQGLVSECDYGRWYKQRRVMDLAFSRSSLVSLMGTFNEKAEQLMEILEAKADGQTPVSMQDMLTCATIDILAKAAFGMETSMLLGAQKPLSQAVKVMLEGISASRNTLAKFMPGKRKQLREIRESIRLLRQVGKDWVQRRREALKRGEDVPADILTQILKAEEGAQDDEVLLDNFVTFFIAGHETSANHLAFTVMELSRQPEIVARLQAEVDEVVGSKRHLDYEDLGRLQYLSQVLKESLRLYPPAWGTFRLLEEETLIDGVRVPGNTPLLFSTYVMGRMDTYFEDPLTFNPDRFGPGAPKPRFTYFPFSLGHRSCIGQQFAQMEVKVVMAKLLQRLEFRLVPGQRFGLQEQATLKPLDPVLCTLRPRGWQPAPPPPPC
Experimental: as §1
(§2) CD1, 3×Tg-AD mice and respective controls (sex: female, age: 9 to 13 months), as well as rats were purchased from established commercial vendors and kept under a 12-hour light/12-hour dark cycle, with ad libitum food and water. Animals were allowed to acclimatize for at least 1 week before the start of the experimental procedures. Mice and rats were anesthetized with isoflurane and scanned in a μPET/computed tomography (CT) scanner for 60 min after tail-vein injection of 18F-CHL-2205. Data were reconstructed in user-defined time frames. Time-activity curves (TACs) were calculated with predefined regions of interest. Results are presented as area under the curve (AUC) from the respective TACs of SUVs, indicating the decay-corrected radioactivity per cubic centimeter, divided by the injected dose per gram of body weight.

Dosimetry experiments = format: in vivo
human CYP46A1 (hCYP46A1) = target: T4, human CYP46A1 (hCYP46A1) (Homo sapiens, UniProt Q9Y6A2); assay: Cell uptake studies in HEK cells overexpressing hCYP46A1; format: cell-based
T4 construct: expressed in transfected cells; host or cells: HEK cells (HEK-CYP46A1)
T4 sequence (Q9Y6A2 whole entry): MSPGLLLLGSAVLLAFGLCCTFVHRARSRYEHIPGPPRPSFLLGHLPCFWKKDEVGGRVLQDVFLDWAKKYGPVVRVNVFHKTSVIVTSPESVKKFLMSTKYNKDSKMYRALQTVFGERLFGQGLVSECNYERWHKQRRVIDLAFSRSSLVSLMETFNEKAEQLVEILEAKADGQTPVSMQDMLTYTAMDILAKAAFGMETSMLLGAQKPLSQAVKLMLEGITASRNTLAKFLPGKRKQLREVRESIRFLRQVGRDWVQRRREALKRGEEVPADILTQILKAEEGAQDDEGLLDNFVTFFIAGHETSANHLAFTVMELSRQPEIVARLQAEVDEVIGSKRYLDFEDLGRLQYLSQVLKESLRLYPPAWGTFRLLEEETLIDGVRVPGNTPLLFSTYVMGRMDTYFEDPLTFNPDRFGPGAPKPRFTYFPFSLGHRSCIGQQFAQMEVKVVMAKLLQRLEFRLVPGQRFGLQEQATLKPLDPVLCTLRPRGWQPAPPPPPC
Experimental: Cell uptake studies were conducted with transfected human embryonic kidney (HEK) cells overexpressing human CYP46A1 (hCYP46A1) and respective controls.
Cell uptake assays were conducted using hCYP46A1 enzyme-HEK cell line (HEK-CYP46A1) and HEK control cells were cultured in Dulbecco's modified Eagle's medium (DMEM) supplemented with 10% fetal bovine serum and antibiotics (0.1 mg/ml streptomycin and 100 IU/ml penicillin). Cells were kept under standard conditions at 37° C. and 5% CO2 and subsequently subpassaged using a solution of 0.25% trypsin and 0.02% EDTA. For cell uptake measurements, HEK-CYP46A1 and HEK control cells were seeded into a 24-well plate at a density of 2×10^5 cells per well the day before the experiment. The medium was replaced with fresh DMEM including ^18F-CHL-2205 (ca. 74 kBq per well) and incubated at 37° C. for 15, 30, and 45 min. The supernatant was collected, and the cells were washed twice with cold 1×phosphate-buffered salinc (PBS) and then harvested by adding 200 μl of 1N NaOH followed by additional two times rinsing with 1×PBS. The blocking assay was performed with the HEK-CYP46A1 cells. […] Supernatant and cell suspensions including 1×PBS from each wash step were collected and then measured using a gamma counter, whereas cell uptake was expressed as the percentage of the added dose after decay correction.

CYP46A1 [9] = target: T1, CYP46A1; assay: Clinical PET study in healthy volunteers; format: in vivo; design: from tissue; host or cells: brain of living healthy volunteers; conditions: CYP46A1-rich regions
Experimental: Eight healthy participants underwent a PET scan with 18F-CHL-2205, followed by a magnetic resonance imaging (MRI) scan for anatomical orientation. Because of the physical half-life of fluorine-18 (109.8 min), the tracer was produced on the day of the experiment in a designated hot cell that provided shielding from radiation exposure and was equipped with an automated synthesis module. PET scans were performed for a duration of 90 min, and the data were subsequently reconstructed to allow the assessment of tracer uptake as a surrogate for CYP46A1 abundancy and cholesterol metabolism.
Experiments were performed to determine whether CYP46A1-targeted PET was sensitive to sex differences in brain cholesterol metabolism. […] Conversely, there was no difference in tracer uptake for low-target density regions such as the cerebellum and brainstem. These findings imply that considerable sex differences in brain cholesterol metabolism via CYP46A1 exist in humans.
An open-label clinical study to evaluate the tolerability, safety, and tracer performance characteristics of 18F-CHL-2205 in healthy volunteers (four men and four women, 22 to 31 years of age) was conducted. […] Volumes of distribution were further determined by Logan graphical analysis and were used to calculate binding potentials. […]

CYP46A1 [10] = target: T2, CYP46A1; assay: Brain binding in Cyp46A1 knockout versus control mice; design: from tissue; host or cells: mouse brain (Cyp46A1+/+ controls; 3xTg-AD mice and controls)
Excerpt: A consideration in CNS-targeted PET constitutes the ability of the tracer to selectivity bind to a target protein while lacking interactions with other abundant brain proteins.

CYP46A1 [11] = target: T2, CYP46A1; assay: PET imaging in 3xTg-AD mice and controls; format: in vivo; design: from tissue; host or cells: mouse brain (Cyp46A1+/+ controls; 3xTg-AD mice and controls); conditions: baseline, intravenous administration
Experimental: Tracer binding was assessed and validated in the 3xTg-AD mouse model. […] Hippocampal uptake of the CYP46A1 tracer was compared between 3xTg-AD mice and respective controls.
as §2

CYP46A1 [12] = target: T5, CYP46A1 (Macaca mulatta, UniProt I2CYF7); assay: In vitro autoradiography of NHP brain; format: binding, NHPs; design: from tissue; host or cells: NHP brain sections; conditions: excess blocker
T5 sequence (I2CYF7 29-500): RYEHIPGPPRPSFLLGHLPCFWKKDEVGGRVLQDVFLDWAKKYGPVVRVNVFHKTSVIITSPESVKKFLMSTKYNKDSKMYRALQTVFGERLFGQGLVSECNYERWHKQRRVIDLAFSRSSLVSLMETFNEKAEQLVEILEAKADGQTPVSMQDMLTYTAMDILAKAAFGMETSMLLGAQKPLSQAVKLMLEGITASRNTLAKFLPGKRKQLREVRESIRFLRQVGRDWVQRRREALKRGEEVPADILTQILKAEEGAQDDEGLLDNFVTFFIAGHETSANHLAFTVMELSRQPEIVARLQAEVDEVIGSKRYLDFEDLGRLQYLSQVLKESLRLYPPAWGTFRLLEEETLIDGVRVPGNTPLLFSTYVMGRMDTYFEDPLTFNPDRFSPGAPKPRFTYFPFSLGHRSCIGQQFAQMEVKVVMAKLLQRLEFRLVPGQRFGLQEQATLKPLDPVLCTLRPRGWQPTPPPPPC
Experimental: PET imaging experiments were conducted in non-human primates (NHPs). Consistent with observations from rodent data, the signal intensity of tracer binding correlated with high abundancy regions for CYP46A1, including the putamen, caudate, and limbic cortical regions such as superficial layers of temporal, insular, and cingulate cortex, as evidenced by in vitro autoradiograms of the brain.

CYP46A1 [13] = target: T5, CYP46A1; assay: Target occupancy PET study in rhesus monkeys; format: in vivo; design: from tissue; host or cells: brain of living rhesus monkeys; conditions: rhesus monkey; dose of 0.9 μmol/kg intravenous, all regions
Experimental: Four rhesus monkeys (4.8 to 9.3 kg) were anesthetized by intramuscular injection of ketamine (10 mg/kg) and then put on the MRI scanning bed in the supine position. Whole-brain images were acquired. For PET, the subjects were initially anesthetized with ketamine (10 mg/kg, intramuscularly), put on the scanning bed, and maintained under anesthesia with 2% isoflurane and 98% oxygen. All rhesus monkeys were supine, and a stereotactic frame was used to fix the position of the head. […] PET/CT and MR images were co-registered. TACs were derived from the respective volumes of interest and were presented as SUVs, which were decay-corrected to the time of radioligand injection. Whole-blood samples were collected from an arterial catheter to measure radioactivity in whole blood and plasma. […]
Then, the mixture was injected into a high-performance liquid chromatography (HPLC) system equipped with a semipreparative IIPLC column and an ultraviolet detector with the wavelength set at 254 nm. […] The HPLC fractions were collected at 30-s intervals for 13 min; each fraction was counted with automatic gamma well counter. […] Tissue volumes of distribution (VT) and non-displaceable binding potential (BPND) values were determined from a two-tissue compartment model, with metabolite-corrected arterial input function.

T1 sequence (Q9Y6A2 whole entry): as the sequence (Q9Y6A2 whole entry) above

| Structure (SMILES) | displacement of 18F-CHL-2205 (CYP46A1 [1]) | Bmax (amount of available CYP46A1 protein) (CYP46A1 [2]; cerebellum) [fmol/g] | Bmax (amount of available CYP46A1 protein) (CYP46A1 [2]; striatum) [fmol/g] | off-target activity [3] | stability against radio defluorination [4] | stability against radio defluorination [5] | stability against radio defluorination [6] | stability against radio defluorination [7] | brain signal attributed to the intact parent tracer (CYP46A1 [8]; brain) | specific signal in the brain (CYP46A1 [8]; ex vivo studies, 15, 30, and 45 min after injection) | brain uptake after systemic administration (CYP46A1 [8]; rats, intravenous injection, PET) | effective dose (Dosimetry experiments) [mSv/MBq] | cell uptake in transfected cells compared to controls (human CYP46A1 (hCYP46A1); HEK cells overexpressing hCYP46A1 vs HEK controls) | SUV15-30 in the caudate and putamen, women versus men (CYP46A1 [9]) | tracer binding in brains of Cyp46A1−/− animals versus control (CYP46A1 [10]; Cyp46A1−/− vs Cyp46A1+/+ mice) | hippocampal time-activity curves (TACs) in 3xTg-AD mice versus controls (CYP46A1 [11]) | tracer signal of the transfected cell population on co-incubation (human CYP46A1 (hCYP46A1); escalating doses, HEK-CYP46A1 cells, 18F-CHL-2205 tracer) | autoradiography signal on co-incubation (CYP46A1 [12]) | receptor occupancy at 0.9 µmol/kg (CYP46A1 [13]) [%] | tracer binding in control brains under blockade (CYP46A1 [10]; excess dose, Cyp46A1+/+ brains) |
| --- | --- | --- | --- | --- | --- | --- | --- | --- | --- | --- | --- | --- | --- | --- | --- | --- | --- | --- | --- | --- |
| C[C@@H](c1ncncc1F)[C@](O)(Cn1cncn1)c1ccc(F)cc1F [voriconazole] | competitive displacement |  |  |  |  |  |  |  |  |  |  |  |  |  |  |  |  |  |  |  |
| CN(C(=O)C1CCN(c2cncnc2-c2ccc([18F])cc2)CC1)C1CC1 [18F-CHL-2205, N-cyclopropyl-1-(4-(4-(fluoro-18F)phenyl)pyrimidin-5-yl)-N-methylpiperidine-4-carboxamide] |  | 21.9 | 117.3 | no off-target activity | stable against radio defluorination | stable against radio defluorination | stable against radio defluorination | stable against radio defluorination | Greater than 99% | greater than 90% | rapid tracer uptake into the brain | 0.012 | fivefold increase | higher in women than in men | signal diminished | consistently higher |  |  |  |  |
| O=C(c1cccnc1-c1ccncc1)N1CCC(O)(Cc2ccccc2)CC1 [soticlestat] | competitive displacement |  |  |  |  |  |  |  |  |  |  |  |  |  |  |  | attenuated in a dose-dependent manner | relative signal reduction | > 90 | reduced to the signal observed in Cyp46A1−/− animals |
